We go through five compounds from patent US4117146A, “Method for treating depression and anxiety using phenyl hydrazo compounds” (The Dow Chemical Company, priority 1977, dated 1978).

Where two headings read alike, the source gives them in different places.

The nature of data set [1]: intraperitoneal acute 50 percent lethal dose. The note with it: mouse, in vivo, ip.
In data set [2] the test system is reserpine-induced depression. Put plainly: protection from reserpine-induced depression (ptosis) in mice. The class given is in vivo. The settings on record: for ED50: Mus musculus, 0.75 h; for antidepressant activity (in words): mean effective dose not calculated for the compounds of b45-b48. How it is done: Separate groups of mice of the same origin and past history (5 mice per group) were administered 2-(2-(2-chlorophenyl)hydrazino)-4,5-dihydro-1H-imidazole monohydrochloride in an aqueous carrier. Different groups were administered the compound by intraperitoneal injection at various dosage rates. Thirty minutes after the administration of the test compound, the mice were administered reserpine at a dosage rate of 2.5 milligrams per kilogram by intraperitoneal injection. Separate groups of similar mice were similarly administered 2.5 milligrams of reserpine per kilogram 30 minutes after administration of various dosages of the known antidepressant. The mice were then observed for 45 minutes for symptoms of reserpine-induced depression.
Protection from reserpine-induced depression is indicated by the absence of the characteristic ptosis.
The results were employed to calculate the dose effective to protect 50 percent of the mice (ED50) by classical, statistical procedures.
The procedure of Example 1 was repeated using oral administration of 2-(2-(2-chlorophenyl)hydrazino)-4,5-dihydro-1H-imidazole monohydrochloride instead of intraperitoneal injection.
Using the general procedure outlined above, the ED50 's were calculated for other compounds showing antidepressant properties. These compounds are represented by the general formula [drawing 2]

Setting [3] is: Table I, oral, read-out: ORAL ED50.
Setting [4] is: ip, Table I, intraperitoneal, read-out: Intraperitoneal ED50.

`Cl.Clc1ccccc1NNC1=NCCN1` [Example 1, 2-(2-(2-chlorophenyl)hydrazino)-4,5-dihydro-1H-imidazole monohydrochloride] showed an LD50 in data set [1] of 167 mg/kg. For the same compound, the ED50 in data set [2] (oral administration, reserpine 2.5 mg/kg i.p., read-out: oral ED50) is 2 mg/kg; in data set [2] (ip, intraperitoneal, 30 minutes before reserpine 2.5 mg/kg i.p., read-out: ED50 (dose effective to protect 50 percent of the mice)) it was less than 10 mg/kg. Also, the “antidepressant activity (in words)” value in data set [2] is given as “particularly active as antidepressants”.

On to `Fc1ccccc1NNC1=NCCN1.I` [Example 3, 2-((2-fluorophenyl)hydrazino)-4,5-dihydro-1H-imidazole monohydriodide], for which the ED50 in data set [2] (setting [3]) was 1 mg/kg; in data set [2] (setting [4]), less than 10 mg/kg. For the same compound, the “antidepressant activity (in words)” value in data set [2] is “particularly active as antidepressants”.

As for `CN1CCN=C1NNc1ccccc1F` [Example 4], the values for the ED50 in data set [2] (setting [3]) and in data set [2] (setting [4]) were 27 mg/kg and 37 mg/kg, respectively.

Take `Fc1ccccc1NNC1=NCCCN1` [Example 5]: the ED50 in data set [2] (setting [3]) came out at 43 mg/kg; in data set [2] (setting [4]), 37 mg/kg.

As to `CN1CCN=C1NNc1ccc(Cl)cc1Cl` [Example 6], the ED50 in data set [2] (setting [4]) came out at 43 mg/kg.

Broadly, the LD50 is the dose expected to kill half of the subjects tested. Read a high LD50 as lower toxicity. The ED50 is the dose at which the effect has come halfway, by size or by number of responders.
